Several values for one entry are separate records, joined by “and”; a condition that tells them apart may be missing. Equal values may be shown once. Read-outs that look alike come from different tables or passages of the source.
Legend:
[1] = target: Myeloid Cell Leukemia 1 (Mcl-1) (Homo sapiens, UniProt Q07820); assay: biochemical; type: binding; conditions: HTRF Ki (nM)
[2] = tested on: MOLP8 cell line; assay: MOLP8 CellEvent Caspase-3/7 Green live-cell IncuCyte apoptosis assay; type: cell-based, human; conditions: averaged values
Procedure: (§1) MCL-1 is a regulator of apoptosis and is highly over-expressed in tumor cells that escape cell death. The assay evaluates the cellular potency of small-molecule compounds targeting regulators of the apoptosis pathway, primarily MCL-1, Bfl-1, Bcl-2, and other proteins of the Bcl-2 family. Protein-protein inhibitors disrupting the interaction of anti-apoptotic regulators with BH3-domain proteins initiate apoptosis.
Activation of the apoptotic pathway was measured using the CellEvent™ Caspase-3/7 Green ReadyProbes™ Reagent (Thermo Fisher C10423, C10723). This assay produces a green fluorescent stain in cells that enter the apoptosis pathway. CellEvent® Caspase-3/7 Green reagent is a four amino acid peptide (DEVD) conjugated to a nucleic acid-binding dye that is non-fluorescent when not bound to DNA. The CellEvent® Caspase-3/7 Green reagent is intrinsically non-fluorescent, as the DEVD peptide inhibits binding of the dye to DNA. Upon activation of caspase-3/7 in apoptotic cells, the DEVD peptide is cleaved and the free dye can bind DNA, generating a bright green fluorescence. The activation of Caspase-3 and Caspase-7 is downstream of inhibition of MCL-1 or other apoptosis inhibiting proteins in cell lines that are dependent on them.
The live-cell readout on the IncuCyte permits tracking over time of the Caspase activation. […] The IncuCyte readout also allows one to normalize for cell number, as the suspension cells are hard to distribute evenly.
Signals were measured every 2 h for a duration of 22 h. The ratio of the Caspase mask to the Confluence mask, per image, as raw data, was calculated and the kinetic trace for every well was exported to Genedata Screener for analysis.
In Genedata Screener values for 6 h, 12 h, and 22 h from the kinetic traces were extracted. The values were normalized against negative controls (untreated cells). A standard dose-response analysis was performed on the normalized data.
The following data was reported at each of the following three aforementioned time points: (a) The dose-response curve, (b) The qAC50 and qAC50 Mode, and (c) Max Activity.
Cells were maintained in culture medium containing 10% Heat Inactivated (HI) FBS, 2 mM L-Glutamine and 50 μg/mL Gentamycin phenol red free RPMI-1640. Cells were split at 0.4 million/mL twice a week.
On Day 1, plates containing individual wells with test compounds at 10 mM concentration, 150 nL per well. The final concentrations range from […] compound (and no compound control) and compounds were thawed at room temperature for 1 hour. 25 μl of prewarmed medium was added into each well by multidrop (column 1, 3-22, 24), followed by addition of DMSO control (0.6% DMSO) in column 2. The plate was sealed using Breathe-Easy® sealing membrane and shaken for 30 min at room temperature to dissolve the test compound(s) in medium. The plate was then kept in the incubator for 1 hour at 37° C., 5% CO2.
MOLP8 cells in medium at […] (20000/50 μl final in assay) were prepared with CellEvent™ Caspase-3/7 Green Detection Reagent at 4 μM (2 μM final in assay). Once prepared, the cells were added to the test compound plate in an amount of 20000 and the plate was immediately placed in the IncuCyte and imaging started using following settings: 10× objective, 2 s exposure time in green channel, interval of 2 h, acquisition stopped after 22 h.
For analysis in IncuCyte, a Basic Analysis protocol was defined to calculate the “confluence” and “caspase” areas from the “Phase” and “green” images, respectively, as follows: (a) Confluence: Segmentation Adjustment 1, Hole Fill 0, Adjust Size −2, No filters (b) Caspase: Top-Hat segmentation, Radius 10, Threshold 0.3 GCU, Edge Split On with sensitivity 0, Hole Fill 0, Adjust Size 1, and filter on a minimum Area of 20 μm^2. The analyzer is trained on a sufficient number of positive and negative control wells, as well as compound treated wells, verifying that the “confluence” layer detects both live and dead (condensed) cells. […]

[3] = tested on: MOLP-8 human multiple myeloma cell line; assay: MOLP8 Caspase-Glo 3/7 luminescent assay; type: cell-based; conditions: averaged over all runs on all batches
From the text: as §1
The Caspase-Glo® 3/7 Assay is a luminescent assay that measures caspase-3 and -7 activities in purified enzyme preparations or cultures of adherent or suspension cells. The assay provides a proluminescent caspase-3/7 substrate, which contains the tetrapeptide sequence DEVD. This substrate is cleaved to release aminoluciferin, a substrate of luciferase used in the production of light. Addition of the single Caspase-Glo® 3/7 Reagent in an “add-mix-measure” format results in cell lysis, followed by caspase cleavage of the substrate and generation of a “glow-type” luminescent signal.
This assay uses the MOLP-8 human multiple myeloma cell line, which is sensitive to MCL-1 inhibition.
Cell cultures were maintained between 0.2 and 2.0×10^6 cells/mL. The cells were harvested by collection in 50 mL conical tubes. The cells were then pelleted at 500 g for 5 mins before removing supernatant and resuspension in fresh pre-warmed culture medium. The cells were counted and diluted as needed.
The assay reagent was prepared by transferring the buffer solution to the substrate vial and mixing. The solution may be stored for up to 1 week at 4° C. with negligible loss of signal.
Compounds were delivered in assay-ready plates (Proxiplate) and stored at −20° C.
Assays always include 1 reference compound plate containing reference compounds. The plates were spotted with 40 nL of compounds (0.5% DMSO final in cells; serial dilution; 30 μM highest conc. 1/3 dilution, 10 doses, duplicates). The compounds were used at room temperature and 4 μL of pre-warmed media was added to all wells except column 2 and 23. The negative control was prepared by adding 1% DMSO in media. The positive control was prepared by adding the appropriate positive control compound in final concentration of 60 μM in media. The plate was prepared by adding 4 μL negative control to column 23, 4 μL positive control to column 2 and 4 μL cell suspension to all wells in the plate. The plate with cells was then incubated at 37° C. for 2 hours. The assay signal reagent is the Caspase-Glo solution described above, and 8 μL was added to all wells. The plates were then sealed and measured after 30 minutes.
The activity of a test compound was calculated as percent change in apoptosis induction as follows: […]

[4] = read-out: MOLP8 Caspase 3/7 AC50 at 6 h, MOLP8 cells, 6 h
[5] = read-out: MOLP8 Caspase 3/7 AC50 at 12 h, MOLP8 cells, 12 h
[6] = read-out: MOLP8 Caspase 3/7 AC50 at 22 h, MOLP8 cells, 22 h
[7] = Homo sapiens, MOLP-8, 2 h, read-out: MOLP8 Caspase-Glo AC50 (nM), MOLP8 cells, 2 hours incubation
[8] = MOLP8 cells, 2 hours incubation, read-out: MOLP8 Caspase-Glo AC50
[9] = Homo sapiens, MOLP-8, 6 h, read-out: MOLP8 Caspase 3/7 AC50 at 6 h (μM), MOLP8 cells, 6 h
[10] = Homo sapiens, MOLP-8, 12 h, read-out: MOLP8 Caspase 3/7 AC50 at 12 h (μM), MOLP8 cells, 12 h
[11] = Homo sapiens, MOLP-8, 22 h, read-out: MOLP8 Caspase 3/7 AC50 at 22 h (μM), MOLP8 cells, 22 h

Myeloid Cell Leukemia 1 (Mcl-1), sequence (Q07820 whole entry): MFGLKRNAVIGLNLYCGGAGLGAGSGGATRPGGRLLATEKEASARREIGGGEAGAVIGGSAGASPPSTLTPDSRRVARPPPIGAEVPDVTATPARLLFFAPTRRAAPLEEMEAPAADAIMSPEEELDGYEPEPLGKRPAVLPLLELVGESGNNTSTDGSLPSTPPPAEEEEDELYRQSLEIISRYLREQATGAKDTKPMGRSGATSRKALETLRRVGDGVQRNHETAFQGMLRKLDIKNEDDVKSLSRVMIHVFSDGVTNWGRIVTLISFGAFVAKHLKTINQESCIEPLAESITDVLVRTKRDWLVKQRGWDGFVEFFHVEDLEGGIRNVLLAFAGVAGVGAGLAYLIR

SMILES	Ki [1]	AC50 [2, 4] [µM]	AC50 [2, 5] [µM]	AC50 [2, 6] [µM]	AC50 [3, 7] [nM]	AC50 [3, 8] [nM]	AC50 [2, 9] [µM]	AC50 [2, 10] [µM]	AC50 [2, 11] [µM]	AC50 ([3]; Homo sapiens, MOLP-8, 2 h, MOLP8 cells, 2 hours incubation, read-out: MOLP8 Caspase-Glo AC50) [nM]
Cc1nn(CCO)c2c1-c1c(Cl)ccc3c(c(C(=O)O)n(C)c13)CCCOc1cc(cc3ccccc13)SCc1cc(nn1C)CN(C)C2 (single isomer, unassigned) [Compound 40]	2.48 nM and 2.61 nM	~26.3	> 30.2	~15.6	10700	–	–	–	–	–
Cc1nn(CCN2CCOCC2)c2c1-c1c(Cl)ccc3c(c(C(=O)O)n(C)c13)CCCOc1cc(cc3ccccc13)SCc1cc(nn1C)CN(C)C2 (single isomer, unassigned) [Compound 41]	0.05 nM and 0.03 nM	0.19	0.2	0.18	–	72	–	–	–	–
Cc1nn(CCN2CCOCC2)c2c1-c1c(Cl)ccc3c(c(C(=O)O)n(C)c13)CCCOc1cc(cc3ccccc13)SCc1cc(nn1C)CN(C)C2 (single isomer, unassigned) [Compound 42]	0.79 nM	2.96	3.18	2.98	–	1260	–	–	–	–
Cc1c2c(nn1C)CSCc1cc(n[nH]1)CSc1cc(c3ccccc3c1)OCCCc1c(C(=O)O)n(C)c3c-2c(Cl)ccc13 [Compound 3]	0.08 nM and 0.11 nM	–	–	–	284	–	0.6	0.55	0.47	–
Cc1c2c(nn1C)CSCc1cc(nn1CCO)CSc1cc(c3ccccc3c1)OCCCc1c(C(=O)O)n(C)c3c-2c(Cl)ccc13 [Compound 6]	0.16 nM	–	–	–	414	–	0.71	0.63	0.48	–
COCCn1nc2cc1CSc1cc(c3ccccc3c1)OCCCc1c(C(=O)O)n(C)c3c(c(Cl)ccc13)-c1c(nn(C)c1C)CSC2 [Compound 10]	0.11 nM	–	–	–	49	–	0.2	0.22	0.21	–
Cc1c2c(nn1C)CSCc1cc(nn1CC1CCOCC1)CSc1cc(c3ccccc3c1)OCCCc1c(C(=O)O)n(C)c3c-2c(Cl)ccc13 [Compound 11]	0.47 nM and 0.43 nM	–	–	–	–	–	0.37	0.43	0.41	385

— patent US20230021562A1, “[…] D[…]-1 INHIBITORS” (priority 2019, published 2023)
